Data: paper PMC2532997, “Methoxylation enhances stilbene bioactivity in Caenorhabditis elegans” (BMC Pharmacology, 2008)

Experiment: Determination of stilbene uptake (steady-state levels by GC-MS)
Type: in vivo, Caenorhabditis elegans
Details: animals treated for 2 days with 100 μM in the culture medium
Text: The differential bioactivities of methoxylated and hydroxylated stilbenes in C. elegans adults might reflect differences in uptake or bioavailability. In general, intact C. elegans adults take up compounds relatively poorly due to their thick, impermeable cuticle. This impermeability has impeded pharmacodynamic analysis in this organism. However, steady-state levels of compounds can be measured in treated animals to provide one measure of pharmacodynamics. To assess whether differential uptake correlated with bioactivity in C. elegans, steady-state levels for pterostilbene, resveratrol-trimethylether and desoxyrhapontigenin were determined in animals treated for 2 days with 100 μM of each compound in the culture medium. […] These concentrations were within the range of serum stilbene levels detected after dietary stilbene supplementation with human volunteers (approx. 2 μM) and rabbits (42.8 μM). […]
Uptake was determined for three stilbenes (desoxyrhapontigenin, pterostilbene and resveratrol-trimethylether) by measuring the steady-state levels of each stilbene in adult fem-1(hc17) hermaphrodites treated under the same conditions as those used for survival assays. […] Derivatized sample was analyzed for stilbenes by gas chromatography-mass spectrometry (GC-MS). […] Quantitation was performed from calibration curve of authentic stilbene samples. […]

## COc1ccc(/C=C/c2cc(OC)cc(OC)c2)cc1 [Resveratrol-trimethylether, resveratrol-trimethylether]
  steady-state level relative to pterostilbene: less than one-third the level of pterostilbene
